Experimental data published in US20260273029A1, “DRY EYE TREATMENT” (Inoculus Ventures, LLC, priority 2022, published 2026).

Key:
[1] = test system: Staphylococcus aureus biofilms; assay: S. Aureus biofilm reduction in 96 well plate: 10 min treatment, crystal violet stain, optical density at 600 nm; format: cell-based, Staphylococcus aureus subsp. aureus Rosenbach (ATCC 29213); settings: for Reduction in Enzyme Effectiveness by preservative: 10 mg/mL α-amylase + preservative, FIG. 12A, 12B
Protocol: • Step 1. Place a new CuveTip on the Photopette • Step 2. Turn on the Photopette and ensure the bluetooth has connected to the iPad. • Step 3. Open the App and set the measurement to collect at 600 nm (use ecoli setting for brevity). • Step 4. Zero the Photopette in DI water, and clean the tip with a chemwipe. • Step 5. Aseptically transfer 100 ml of the TSB citrate media (TSBC) to a flask. • Step 6. Aseptically transfer the overnight culture of Staphylococcus aureus subsp. aureus Rosenbach (ATCC 29213) in Tryptic Soy Broth to the TSB citrate media (TSBC) using a pipet until the culture is diluted to A600 of 0.02 (~2×10^8 CFU/ml) measured with the Photopette. • Step 7. Remove a sterile 96 well plate from the sterile packaging in the hood and place on the table. • Step 8. Set an 8 channel pipet for […] and attach sterile tips. • Step 9. Plate the desired number of wells with […] of the diluted culture. • Step 10. Cover the well plate and incubate overnight for 18 hrs at 37° C.
Plate S. Aureus in all wells of a 96 tissue culture treated well plate. The well plate should incubate for 18 hrs at 37° C. before being assayed for biofilm formation.
Carefully tilt plate and pipet all liquid from the wells by inserting the pipet tips in the bottom corner of the wells to remove non-adherent cells without disturbing the biofilm grown on the bottom of the well.
Start a timer for 10 minutes when the first row is treated using an 8-channel pipette. Each row should be treated every 30 seconds making sure to gently release the composition in the corner of the well to not disturb the biofilm mechanically.
After 10 min all fluid should be removed row by row every 30 seconds starting with Row 1. The fluid must be removed with gentle pipetting, with the plate at an angle, with the pipette in the corner to remove non-adherent cells without disturbing the biofilm grown on the bottom of the well.
Add 50 μl of 0.1% crystal violet (CV) to stain adherent cells for all wells.
Carefully rinse all wells by submerging the plate in a DI water bath to remove all remaining crystal violet.
Dry the well plate and measure the optical density of the biofilms using a plate reader at 600 nm.
Repeat the steps outlined in 1.2 and 1.3 for scheduled testing days on days 7, 14, 21, 28, and 35. For each day of testing scheduled at days 7, 14, 21, 28, and 35 a well plate of biofilm should be prepared the day before.
The remaining biofilm density was assessed using a cell plate reader at 600 nm called an optical density 600 (OD600) measurement.
Staphylococcus aureus biofilms were grown in 96 well (Corning Falcon) cell culture treated plates using a TSB broth supplemented with yeast extract, glucose, and sodium citrate to induce biofilm formation and incubated for 18 hours.
Non-adherent cells were removed and the biofilms were treated with different solutions to test the ability to break down the Staph. aureus biofilms. Solutions with α-amylase were produced at 10 mg/mL using α-amylase from Aspergillus oryzae (Sigma-Aldrich Catalog #10065) ~30 U/mg.
After 10 minutes of incubation non-adherent cells were removed and the residual biofilms were stained with crystal violet. The density of the remaining biofilm was measured at 600 nm using a Byonoy Absorbance 96 plate reader.
Staphylococcus aureus biofilms were grown in 96 well (Crnming Falcon) cell culture treated plates using a TSB broth supplemented with yeast extract, glucose, and sodium citrate to induce biofilm formation and incubated for 18 hours. […]

biofilm on the eyelid = assay: Treatment of a human subject (Example 13): eyelid photographs and reported symptoms; format: in vivo; settings: daily Avenova
Text: All images are from the same subject at the Watson Dry Eye Center in Raleigh NC at the specified times. The images were reviewed retrospectively to determine if the visual signs of biofilm on the eyelid were removed by a composition of α-amylase from Aspergillus oryzae and 0.01% hypochlorous acid. It should be noted that from May 23, 2018-Nov. 20, 2020 the patient cleaned their eyes with just 0.01% hypochlorous acid in saline two times a day. After this, the patient used the novel composition of α-amylase from Aspergillus oryzae and 0.01% hypochlorous acid. The first composition was made from powdered α-amylase from Aspergillus oryzae and liquid 0.01% hypochlorous acid in saline right before application to the eyelid with a cotton swab. […] Dosage information is written on the timeline below.
FIG. 1A and FIG. 1B are photographs depicting two different areas of an eye of the subject afflicted with blocked meibomian glands, shiny biofilm at the base of eyelashes, shine biofilm on eyelashes, and lash growth misdirection taken on May 23, 2018 (time 0). After the photos were taken, the subject was treated with Blephex and Intense Pulse Light Therapy for biofilm removal treating inflammation.
Subject received a subsequent treatment session on Dec. 4, 2018. FIG. 2A and FIG. 2B are photographs depicting the two different areas of the eye of the subject on Dec. […]

Question: What does the source list for `OCl` [0.01% hypochlorous acid, hypochlorous acid]?
Answer: inhibition of biofilm removal by the enzyme ([1]; 0.01% hypochlorous acid with 10 mg/ml α-amylase and cofactors, FIG. 13): did not inhibit biofilm removal by the enzyme; biofilm reduction by the additive on its own ([1]; without α-amylase, 10 min): slightly reduce the biofilm; biofilm at the eyelashes (biofilm on the eyelid; time 2 (June 18 2019), FIG. 3A): the biofilm continues to grow at the base of the eyelashes; biofilm at the eyelashes and eyelid (biofilm on the eyelid; time 3 (October 15 2019), FIGS. 4A and 4B): the shine biofilm remains at the eyelashes and inside the eyelid

Question: `OC[C@H]1O[C@H](O[C@H]2O[C@H](CO)[C@@H](O)[C@H](O)[C@H]2O)[C@H](O)[C@@H](O)[C@@H]1O` [Trehalose] was tested. Which “differences in the enzyme activity (break down of biofilms) between concentrations” value ([1]; 3%, 6.8%, and 8% Trehalose solutions, α=0.05, FIG. 17) did it give?
Answer: no significant differences

Question: Which “Reduction in Enzyme Effectiveness by preservative” value ([1]; 10 min) does the source give for “benzalkonium chloride [BAK (benzalkonium chloride) 0.01%]” here?
Answer: No Reduction in Enzyme Effectiveness

Question: For “sodium perborate [GenAqua/Dequest (sodium perborate)]”, which “Reduction in Enzyme Effectiveness by preservative” value ([1]; 10 min) is on record?
Answer: No Reduction in Enzyme Effectiveness
